According to ChEMBL document CHEMBL5518244, “Design, Synthesis, and Biological Evaluation of a Novel NIK Inhibitor with Anti-Inflammatory and Hepatoprotective Effects for Sepsis Treatment” (J Med Chem, 2024):
The source made the active and inactive calls. The calls are words filed in the database; no cut-off is given here.

Legend:
[1] = target: T1, Mitogen-activated protein kinase kinase kinase 14 (Homo sapiens, UniProt Q99558); test: Inhibition of NIK (unknown origin) incubated 30 to 60 mins by ADP-Glo Kinase
Target sequence in this assay (Q99558 whole entry): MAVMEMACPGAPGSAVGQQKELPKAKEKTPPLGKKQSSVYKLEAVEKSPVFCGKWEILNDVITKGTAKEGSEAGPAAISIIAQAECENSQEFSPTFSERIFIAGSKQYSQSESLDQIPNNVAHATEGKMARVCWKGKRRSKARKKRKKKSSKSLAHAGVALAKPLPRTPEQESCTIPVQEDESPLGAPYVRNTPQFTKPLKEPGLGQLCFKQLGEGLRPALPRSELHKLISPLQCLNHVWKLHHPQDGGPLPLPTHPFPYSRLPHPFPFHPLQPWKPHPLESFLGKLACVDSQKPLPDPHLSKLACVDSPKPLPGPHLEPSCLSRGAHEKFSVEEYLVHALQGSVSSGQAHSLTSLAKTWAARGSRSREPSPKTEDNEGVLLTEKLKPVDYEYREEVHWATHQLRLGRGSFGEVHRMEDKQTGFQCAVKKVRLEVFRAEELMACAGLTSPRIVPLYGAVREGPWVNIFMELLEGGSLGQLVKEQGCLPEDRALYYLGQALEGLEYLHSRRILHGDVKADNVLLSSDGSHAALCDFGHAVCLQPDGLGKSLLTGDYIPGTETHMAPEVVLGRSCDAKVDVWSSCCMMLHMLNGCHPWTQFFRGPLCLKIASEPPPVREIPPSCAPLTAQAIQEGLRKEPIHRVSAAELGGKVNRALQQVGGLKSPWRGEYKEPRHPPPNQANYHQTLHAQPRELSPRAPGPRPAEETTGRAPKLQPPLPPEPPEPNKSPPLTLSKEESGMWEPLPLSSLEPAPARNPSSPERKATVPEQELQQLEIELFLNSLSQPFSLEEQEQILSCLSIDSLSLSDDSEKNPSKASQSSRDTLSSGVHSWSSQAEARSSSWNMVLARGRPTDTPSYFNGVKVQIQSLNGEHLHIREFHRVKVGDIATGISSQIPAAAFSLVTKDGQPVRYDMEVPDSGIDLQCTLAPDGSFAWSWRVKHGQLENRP

[2] = target: T1, Mitogen-activated protein kinase kinase kinase 14; test: Inhibition of NIK (unknown origin) expressed in COS-7 cells co-expressing NF-KappaB luciferase reporter assessed as suppression of luciferase reporter at 1 uM measured after 24 by beta-Gal activity assay; assay type: cell-based
Target sequence in this assay (Q99558 whole entry, looked up): as the sequence (Q99558 whole entry) above

[3] = target: T1, Mitogen-activated protein kinase kinase kinase 14; test: Inhibition of NIK (unknown origin) expressed in COS-7 cells co-expressing NF-KappaB luciferase reporter assessed as suppression of luciferase reporter at 5 uM measured after 24 by beta-Gal activity assay; assay type: cell-based
Target sequence in this assay (Q99558 whole entry, looked up): as the sequence (Q99558 whole entry) above

[4] = target: T1, Mitogen-activated protein kinase kinase kinase 14; test: Inhibition of NIK (unknown origin) expressed in COS-7 cells co-expressing NF-KappaB luciferase reporter assessed as suppression of luciferase reporter measured after 24 by beta-Gal activity assay; assay type: cell-based
Target sequence in this assay (Q99558 whole entry): as above

[5] = test system: Macrophage; test: Anti-inflammatory activity in mouse macrophages extracted from abdominal activity assessed as inhibition of LPS-induced nitric oxide production at 1 uM measured after 22 hrs by Griess reagent assay relative to control; assay type: functional, cell-based

IC50 [1]	SMILES	also measured
4.76 nM	CC(O)(C#Cc1cc2n(n1)CCCN2c1ccnc(Nc2ccccc2)n1)c1nccs1 (stereo not given)	inhibition [2]: Active; inhibition [3]: Active; IC50 [4]: 2170 nM; IC50 [5]: 59400 nM
4.73 nM	CC(O)(C#Cc1cc2n(n1)CCCN2c1ncnc(Nc2ccc(Cl)cc2)n1)c1nccs1 (stereo not given)	
2.68 nM	CC(O)(C#Cc1ccc2c(c1)N(c1nc(N)ncc1Cl)CC2)c1nccs1 (stereo not given)	IC50 [4]: 910 nM; IC50 [5]: 58600 nM
5.1 nM	COc1ccnc(Nc2nccc(N3CCCn4nc(C#CC(C)(O)c5nccs5)cc43)n2)c1 (stereo not given)	
6.46 nM	CC(O)(C#Cc1cc2n(n1)CCCN2c1ccnc(Nc2ccc(Cl)cc2)n1)c1nccs1 (stereo not given)	
3.78 nM	Cc1cc(C(C)(O)C#Cc2cc3n(n2)CCCN3c2ccnc(Nc3ccc4c(c3)OCO4)n2)no1 (stereo not given)	
9.36 nM	Cn1ccc(Nc2nccc(N3CCCn4nc(C#CC(C)(O)c5nccs5)cc43)n2)n1 (stereo not given)	
8.34 nM	CC(O)(C#Cc1cc2n(n1)CCCN2c1ccnc(Nc2ccc(F)cn2)n1)c1nccs1 (stereo not given)	
5.01 nM	CC(O)(C#Cc1cc2n(n1)CCCN2c1ccnc(Nc2cccc(C#N)c2)n1)c1nccs1 (stereo not given)	inhibition [2]: Active; inhibition [3]: Active; IC50 [4]: 3560 nM; IC50 [5]: 64100 nM
22.7 nM	CC(C)(O)C#Cc1cc2n(n1)CCCN2c1ccnc(Nc2ccc3c(c2)OCO3)n1	
433 nM	COc1cccnc1Nc1nccc(N2CCCn3nc(C#CC(C)(O)c4nccs4)cc32)n1 (stereo not given)	
2.85 nM	CC(O)(C#Cc1cc2n(n1)CCCN2c1ccnc(Nc2ccc3c(c2)OCO3)n1)c1nccs1 (stereo not given)	inhibition [2]: Active; inhibition [3]: Active; IC50 [4]: 1410 nM; IC50 [5]: 80300 nM
> 500 nM	CC(O)(C#Cc1cc2n(n1)CCCN2c1ncnc2[nH]ccc12)c1nccs1 (stereo not given)	
29.1 nM	CC(O)(C#Cc1cc2n(n1)CCCN2c1ccnc(Nc2ccc3c(c2)OCO3)n1)c1ccccc1 (stereo not given)	
11.2 nM	CNc1nccc(N2CCCn3nc(C#CC(C)(O)c4nccs4)cc32)n1 (stereo not given)	
> 500 nM	C(#Cc1cc2n(n1)CCCN2c1ccnc(Nc2ccc3c(c2)OCO3)n1)c1ccccn1	
14.8 nM	COCCN(C)c1cccc(Nc2nccc(N3CCCn4nc(C#CC(C)(O)c5nccs5)cc43)n2)n1 (stereo not given)	
> 500 nM	CC(O)(C#Cc1cc2n(n1)CCCN2c1cccc(Nc2ccccc2)n1)c1nccs1 (stereo not given)	
208 nM	CN(C)c1ccnc(Nc2nccc(N3CCCn4nc(C#CC(C)(O)c5nccs5)cc43)n2)c1 (stereo not given)	
58.4 nM	CC(O)(C#Cc1cc2n(n1)CCCN2c1cc(Nc2ccc(F)cc2)ncn1)c1nccs1 (stereo not given)	
4.43 nM	COc1cccc(Nc2nccc(N3CCCn4nc(C#CC(C)(O)c5nccs5)cc43)n2)n1 (stereo not given)	
6.74 nM	COc1cc(Nc2nccc(N3CCCn4nc(C#CC(C)(O)c5nccs5)cc43)n2)cc(OC)c1 (stereo not given)	
341 nM	CC(O)(C#Cc1cc2n(n1)CCCN2c1ccnc(Nc2cc(N3CCOCC3)ccn2)n1)c1nccs1 (stereo not given)	
131 nM	CC(O)(C#Cc1cc2n(n1)CCCN2c1ccnc(NC2CCCCC2)n1)c1nccs1 (stereo not given)	
11.5 nM	CC(O)(C#Cc1cc2n(n1)CCCN2c1ccnc(Nc2cccc(N3CCOCC3)c2)n1)c1nccs1 (stereo not given)	
9.8 nM	CC(O)(C#Cc1cc2n(n1)CCCN2c1ccnc(Nc2cccc(N3CCOCC3)n2)n1)c1nccs1 (stereo not given)	inhibition [2]: Active; inhibition [3]: Active; IC50 [4]: 2430 nM; IC50 [5]: 17200 nM
> 500 nM	OC1(C#Cc2cc3n(n2)CCCN3c2ccnc(Nc3ccc4c(c3)OCO4)n2)COC1	
6.96 nM	CC(O)(C#Cc1cc2n(n1)CCCN2c1ccnc(Nc2cc(C#N)ccn2)n1)c1nccs1 (stereo not given)	

IC50 [1]	SMILES	also measured
5.35 nM	Cn1cc(Nc2nccc(N3CCCn4nc(C#CC(C)(O)c5nccs5)cc43)n2)cn1 (stereo not given)	
> 500 nM	CC(O)(C#Cc1cc2n(n1)CCCN2c1nc(N)ncc1F)c1nccs1 (stereo not given)	
10.7 nM	COc1cc(Nc2nccc(N3CCCn4nc(C#CC(C)(O)c5nccs5)cc43)n2)nc(OC)c1 (stereo not given)	
14.3 nM	CC(C)Nc1nccc(N2CCCn3nc(C#CC(C)(O)c4nccs4)cc32)n1 (stereo not given)	
5.93 nM	CC(O)(C#Cc1cc2n(n1)CCCN2c1ccnc(Nc2ccccn2)n1)c1nccs1 (stereo not given)	
16.6 nM	CC(O)(C#Cc1cc2n(n1)CCCN2c1ccnc(Nc2cccc(C(F)(F)F)n2)n1)c1nccs1 (stereo not given)	
5.77 nM	COc1cccc(Nc2nccc(N3CCCn4nc(C#CC(C)(O)c5nccs5)cc43)n2)c1 (stereo not given)	inhibition [2]: Active; inhibition [3]: Active; IC50 [4]: 1330 nM; IC50 [5]: 45900 nM
9.17 nM	CC(C)n1cc(Nc2nccc(N3CCCn4nc(C#CC(C)(O)c5nccs5)cc43)n2)cn1 (stereo not given)	
14.1 nM	OC1(C#Cc2cc3n(n2)CCCN3c2ccnc(Nc3ccc4c(c3)OCO4)n2)CCCC1	
89.4 nM	COc1cc(Nc2nccc(N3CCCn4nc(C#C[C@](C)(O)c5nccs5)cc43)n2)cc(OC)c1	
16.5 nM	CC(C)Oc1cccc(Nc2nccc(N3CCCn4nc(C#CC(C)(O)c5nccs5)cc43)n2)n1 (stereo not given)	
7.76 nM	CN(C)c1cccc(Nc2nccc(N3CCCn4nc(C#CC(C)(O)c5nccs5)cc43)n2)c1 (stereo not given)	inhibition [2]: Active; inhibition [3]: Active; IC50 [4]: 2230 nM; IC50 [5]: 76800 nM
6.99 nM	CC(O)(C#Cc1cc2n(n1)CCCN2c1ccnc(Nc2cc(Cl)ccn2)n1)c1nccs1 (stereo not given)	
22.1 nM	CC(O)(C#Cc1cc2n(n1)CCCN2c1ccnc(Nc2ccc3ccccc3n2)n1)c1nccs1 (stereo not given)	
4.6 nM	CC(O)(C#Cc1cc2n(n1)CCCN2c1ccnc(N)n1)c1nccs1 (stereo not given)	
70.8 nM	CC(O)(C#Cc1cc2n(n1)CCCN2c1nc(N)ncc1Cl)c1nccs1 (stereo not given)	
34.2 nM	COCCNc1nccc(N2CCCn3nc(C#CC(C)(O)c4nccs4)cc32)n1 (stereo not given)	
15.4 nM	CC(O)(C#Cc1cc2n(n1)CCCN2c1ccnc(Nc2ccc3c(c2)OC(F)(F)O3)n1)c1nccs1 (stereo not given)	
13 nM	CN(C)c1cccc(Nc2nccc(N3CCCn4nc(C#CC(C)(O)c5nccs5)cc43)n2)n1 (stereo not given)	
7.44 nM	COc1ccc(Nc2nccc(N3CCCn4nc(C#CC(C)(O)c5nccs5)cc43)n2)nc1 (stereo not given)	
5.39 nM	CC(O)(C#Cc1cc2n(n1)CCCN2c1ccnc(NC23CC(C2)C3)n1)c1nccs1 (stereo not given)	inhibition [2]: Active; inhibition [3]: Active; IC50 [4]: 1510 nM; IC50 [5]: 16500 nM
11.3 nM	CC(O)(C#Cc1cc2n(n1)CCCN2c1ccnc(Nc2ccccc2)c1)c1nccs1 (stereo not given)	
24.6 nM	CC(O)(C#Cc1cc2n(n1)CCCN2c1ccnc(Nc2cccc(N3CCCCC3)n2)n1)c1nccs1 (stereo not given)	
4.33 nM	OC1(C#Cc2cc3n(n2)CCCN3c2ccnc(Nc3ccc4c(c3)OCO4)n2)CCn2ccnc21 (stereo not given)	
11.3 nM	CC(O)(C#Cc1cc2n(n1)CCCN2c1ccnc(Nc2ccncn2)n1)c1nccs1 (stereo not given)	
> 500 nM	C(#CC1CC1)c1cc2n(n1)CCCN2c1ccnc(Nc2ccc3c(c2)OCO3)n1	
6.17 nM	CC(O)(C#Cc1cc2n(n1)CCCN2c1ccnc(Nc2ccc(F)cc2)n1)c1nccs1 (stereo not given)	
